Laboratory results published in patent publication US20250195520A1, “COMBINATION THERAPY USING A PTPN11 INHIBITOR AND AN EGFR INHIBITOR” (NAVIRE PHARMA, INC., priority 2021, published 2025).
Entries after “also recorded” stand apart in the source; their conditions may differ.

Experiments:
HCC4006 cells [1] = test: In vitro 3-day proliferation assay (CellTiter-Glo 2.0), HCC4006; type: cell-based; details: Homo sapiens, 72 h, HCC4006 parental cells
Procedure: (§1) Cell lines. The HCC4006 cell line was purchased from ATCC. […] The cells were cultured in RPMI-1640 containing 4 mM glutamax (Thermo Fisher #72400-120)+10% fetal bovine serum (FBS, Sigma #F2442) in 37° C. tissue culture incubator with 5% CO2 (NUAIRE, NU-5510).
(§2) In vitro 3-day proliferation assay. HCC4006 or HCC4006-OsiR cells were plated in 96-well plates (Corning #3603) at 1,500 cells per well in 100 μL of media (RPMI-1640+10% FBS) and allowed to attach overnight. […] Final DMSO concentration was 0.1%. After 3 days of treatment, viable cell numbers were determined using CellTiter-Glo 2.0 cell viability assay (Promega #G9241).
(§3) CellTiter-Glo 2.0 cell viability assay. CellTiter-Glo 2.0 cell viability assay (Promega #G9241) was used to determine the relative viable cell number, following manufacturer's protocols. Briefly, 100 μL CellTiter-Glo reagent was added to each well in the 96-well plate. The plate was put on a VWR advanced 3500 orbital shaker (VWR #89032-096) at 100 rpm shaking for 5 min at room temperature, then incubated at room temperature for 15 min, protected from the light. Afterwards, luminescence was quantified using a PheraStar plate reader (BMG Labtech). The luminescence readings were normalized to the average of DMSO treated samples of each cell line, using Microsoft Excel. Data were plotted in GraphPad Prism 8.0. Non-linear fit was used to generate the dose response curve. […]

HCC4006-OsiR cells [2] = test: In vitro 3-day proliferation assay (CellTiter-Glo 2.0), HCC4006-OsiR; type: cell-based, human
Procedure: as §1, §2, §3

HCC4006 cells [3] = test: In vitro clonogenic assay (crystal violet, Bliss score), HCC4006; type: cell-based; details: Homo sapiens, 336 h; HCC4006, 14-day clonogenic assay
Procedure: (§4) In vitro clonogenic assay. […] Compounds were prediluted in media at 4x the final concentration, and the final DMSO concentration was 0.2% in 1 mL of media per 24-well. After 12˜14 days of treatment, the plates were stained with crystal violet solution.
(§5) Crystal violet staining, quantification and Bliss score calculation. The 0.1% crystal violet staining solution was prepared by mixing 100 mL of 1% crystal violet solution (Sigma #V5265), 100 mL of 100% ethanol and 800 mL of ddH2O. […] After removal of DPBS, 0.5 mL of 0.1% crystal violet staining solution was added to each 24-well. The plates were incubated at room temperature for 30 min. The staining solution was removed from wells and discarded. Each well was then washed with 1 mL of ddH2O. Afterwards, the plates were dipped in a large bucket filled with tap water 2˜4 times until the supernatant became colorless. […]
(§6) The OD590 readings (multiplied by the dilution factor) were normalized to the average of DMSO treated samples, using Microsoft Excel. The Bliss expectation was calculated with the equation (A+B)−A×B/100, where A and B were the percentage growth inhibition induced by agents A and B at a given dose. Bliss score is the difference between the detected growth inhibition (%) caused by the combination of the two agents and the bliss expectation. […]

HCC4006-OsiR cells [4] = test: In vitro clonogenic assay (crystal violet, Bliss score), HCC4006-OsiR; type: cell-based, human; details: 14-day clonogenic assay
Procedure: as §4, §5, §6

[5] = test system: NCI-H1975 (C797S+) tumors; test: NCI-H1975 (C797S+) tumor model, tumor volume; type: in vivo, mouse
[6] = biological target: T1, PTPN11-E76K mutant enzyme (Homo sapiens, UniProt Q06124, E76K); details: e.g. PTPN11-E76K mutant enzyme; stated as 'in certain embodiments'; read-out: IC50 for inhibition of PTPN11; cited from earlier work
T1 sequence (Q06124 1-593 E76K): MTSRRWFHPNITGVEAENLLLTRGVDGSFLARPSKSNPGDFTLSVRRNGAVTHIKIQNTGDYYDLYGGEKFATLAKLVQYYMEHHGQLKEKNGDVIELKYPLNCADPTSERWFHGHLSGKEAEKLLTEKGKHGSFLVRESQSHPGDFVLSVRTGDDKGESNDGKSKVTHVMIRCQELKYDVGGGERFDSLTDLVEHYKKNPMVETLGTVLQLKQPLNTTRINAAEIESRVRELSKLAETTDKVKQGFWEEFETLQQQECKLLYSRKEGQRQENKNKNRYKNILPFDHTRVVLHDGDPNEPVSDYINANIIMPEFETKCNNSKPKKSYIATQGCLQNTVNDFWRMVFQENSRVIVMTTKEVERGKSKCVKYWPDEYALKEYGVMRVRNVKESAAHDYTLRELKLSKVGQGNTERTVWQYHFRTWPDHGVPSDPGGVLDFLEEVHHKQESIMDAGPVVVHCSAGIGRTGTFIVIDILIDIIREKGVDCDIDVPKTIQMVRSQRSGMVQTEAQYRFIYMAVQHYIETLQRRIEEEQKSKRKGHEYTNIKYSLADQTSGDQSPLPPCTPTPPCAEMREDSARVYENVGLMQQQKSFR

Row | SMILES | IC50 (HCC4006 cells [1]) [nM] | anti-proliferative effect (HCC4006-OsiR cells [2]; 1,000 nM (the highest concentration tested), HCC4006-OsiR, 3-day) | IC50 (HCC4006-OsiR cells [2]; Homo sapiens, 72 h, HCC4006-OsiR cells, 3-day proliferation assay) [nM] | IC50 (HCC4006 cells [3]) [nM] | shift in IC50, HCC4006-OsiR compared with HCC4006 parental cells (HCC4006-OsiR cells [4]) [fold] | IC50 (HCC4006-OsiR cells [4]; Homo sapiens, 336 h, HCC4006-OsiR) [nM] | tumor growth (tumor volume) [5] | IC50 [6] [nM]
1 | C=CC(=O)Nc1cc(Nc2nccc(-c3cn(C)c4ccccc34)n2)c(OC)cc1N(C)CCN(C)C [Osimertinib] | 27 ± 7.9 | no anti-proliferative effect | > 1000 | 12.2 ± 2.5 | 20 | 257 ± 241 |  | 
2 | Cc1c(N2CCC3(CC2)CO[C@@H](C)[C@H]3N)nc(C)n(-c2cccc(Cl)c2Cl)c1=O (atropisomer, axis not shown; (Ra)) [Formula (10b), 6-((3S,4S)-4-amino-3-methyl-2-oxa-8-azaspiro[4.5]decan-8-yl)-3-(Ra)-(2,3-dichlorophenyl)-2,5-dimethylpyrimidin-4 (3H)-one] |  |  |  |  |  |  | suppresses the growth; also recorded: robust tumor regression | ≤ 50
